Series [1] has as its target Replicase polyprotein 1ab (Severe acute respiratory syndrome coronavirus 2, UniProt P0DTD1). As to the kind of experiment: Inhibition of SARS-CoV-2 3CL protease by FRET assay.
The target of series [2] is Replicase polyprotein 1ab (Severe acute respiratory syndrome coronavirus 2) (UniProt P0DTD1). In words: Binding affinity to SARS-CoV-2 3CL protease assessed as biphasic dissociation rate by measuring half life by jump dilution assay.
The target is the same in series [3]. As to the kind of experiment: Binding affinity to SARS-CoV-2 3CL protease assessed as monophasic dissociation rate by measuring half life by jump dilution assay.
The next series has as its system SARS-CoV-2. As to the kind of experiment: microbe, parasite or virus in culture. The settings on record: Severe acute respiratory syndrome coronavirus 2, Vero, read-out: pEC50 (converted).
Another series can be described thus: cells. As to conditions: Betacoronavirus 1, MRC5, read-out: pEC50 (converted).
Series [4] in a line: Cytotoxicity against human MRC5 cells infected with […] inhibition of cell growth. Type of series: toxicity, cell-based.
A short description of series [5]: Permeability of compound in MDCK cells. Type of series: ADME, cell-based, Canis lupus familiaris. The settings on record: dog, read-out: permeability.

Where a SMILES comes first, the peptide text is derived from it. [ ]: non-standard residue; d: D form. The star is where a group is joined. Phe(4-F) = N[C@@H](Cc1ccc(F)cc1)C(=O)O; Cbz = O=C(OCc1ccccc1)*

Description for SARS-CoV-2: Antiviral activity against SARS-CoV-2 infected in african green monkey Vero cells assessed as virus-induced cell death
Description for cells: Antiviral activity against SARS-CoV-2 OC43 infected in human MRC5 cells assessed as inhibition of bacterial growth

For the compound `CC(C)C[C@H](NC(=O)[C@H](Cc1ccc(F)cc1)NC(=O)OCc1ccccc1)C(=O)N[C@@H](/C=C1\CCOC1=O)C[C@@H]1CCCO1`, the IC50 – broadly, the midpoint of a concentration-inhibition curve – in series [1] is above 1000 nM.

For `CC(C)C[C@H](NC(=O)[C@H](Cc1ccc(F)cc1)NC(=O)OCc1ccccc1)C(=O)N[C@H](/C=C1\CCOC1=O)C[C@@H]1CCNC1=O`, in series [1], the IC50 is 1.58 nM. For the same compound, the T1/2 in series [2] was 468 min.

`CC(C)C[C@H](NC(=O)[C@H](Cc1ccc(F)cc1)NC(=O)OCc1ccccc1)C(=O)N[C@@H](C[C@@H]1CCNC1=O)C(=O)C(=O)NC(C)C`: in series [1], it took 5.01 nM to reach half-maximal inhibition (IC50) and the Ki – broadly, a dissociation constant, usually derived from enzyme kinetics or from competition with a known ligand – is 5.01 nM. Also, in series [3], the T1/2 stood at 18 min.

The compound `CC(C)C[C@H](NC(=O)[C@H](Cc1ccc(F)cc1)NC(=O)OCc1ccccc1)C(=O)N[C@@H](/C=C1\CCOC1=O)C[C@H]1CCCO1` gave an IC50 in series [1] above 1000 nM.

As for `CC(C)C[C@H](NC(=O)[C@H](Cc1ccc(F)cc1)NC(=O)OCc1ccccc1)C(=O)N[C@H](/C=C1\CCOC1=O)C[C@@H]1CCCO1`, in series [1], the IC50 is 39.8 nM. For the same compound, the EC50 in the series with SARS-CoV-2 is 15800 nM. The T1/2 in series [2] is 660 min.

In the case of `CC(C)C[C@H](NC(=O)[C@H](Cc1ccc(F)cc1)NC(=O)OCc1ccccc1)C(=O)N[C@H](/C=C1\CCOC1=O)C[C@H]1CCCO1`, it took 126 nM to reach half-maximal inhibition in series [1] (IC50). In addition, in the series with SARS-CoV-2, the EC50 was 15800 nM. The T1/2 in series [3] is 12 min.

`CSCC[C@@H](C=O)NC(=O)[C@H](CC(C)C)NC(=O)[C@H](Cc1ccc(F)cc1)NC(=O)OCc1ccccc1` (Cbz-[Phe(4-F)]-Leu-Met-aldehyde): the EC50 in the series “cells” is 1000 nM; in the series with SARS-CoV-2 it was 1260 nM. In addition, the CC50 (commonly the concentration that lowers cell viability or growth by half) in series [4] is 3980 nM. The same compound showed an IC50 in series [1] of 6.31 nM. Also, in series [3], the T1/2 was below 12 min.

As for `CC(C)C[C@H](NC(=O)[C@H](Cc1ccc(F)cc1)NC(=O)OCc1ccccc1)C(=O)NC(C=O)CCF` (mixture of isomers), the EC50 in “cells” was above 50100 nM; in the series on SARS-CoV-2, 1000 nM. The compound also gave a CC50 in series [4] of 2000 nM. Further, in series [1], it took 631 nM to reach half-maximal inhibition (IC50). The T1/2 in series [3] was below 12 min.

Consider `CC(C)C[C@H](NC(=O)[C@H](Cc1ccc(F)cc1)NC(=O)OCc1ccccc1)C(=O)NC(C=O)CC(F)F` (mixture of isomers), for which the EC50 in the series “cells” is above 1580 nM; with SARS-CoV-2, 1000 nM. For the same compound, in series [4], the CC50 was 1580 nM. Moreover, half-maximal inhibition in series [1] (IC50) was put at 1000 nM. Further, the T1/2 in series [3] was below 12 min.

Consider `CC(C)C[C@H](NC(=O)[C@H](Cc1ccc(F)cc1)NC(=O)OCc1ccccc1)C(=O)NC(/C=C1\CCOC1=O)CC1CCCO1` (mixture of isomers), for which inhibition in series [1] was half-maximal at 158 nM (IC50). Also, the T1/2 in series [3] amounted to 18 min.

As for `CC(C)C[C@H](NC(=O)[C@H](Cc1ccc(F)cc1)NC(=O)OCc1ccccc1)C(=O)NC(C=O)Cc1ccccn1` (mixture of isomers), the EC50 in “cells” was 1580 nM. Moreover, the CC50 in series [4] is 10000 nM. Also, the IC50 in series [1] is 12.6 nM. In addition, the T1/2 in series [3] was 18 min.

In the case of `CC(C)C[C@H](NC(=O)[C@H](Cc1ccc(F)cc1)NC(=O)OCc1ccccc1)C(=O)NC(CC1CCCO1)C(=O)C(=O)NC(C)C` (mixture of isomers), the IC50 in series [1] is 200 nM. The T1/2 in series [3] amounted to 12 min.

As for `CC(C)C[C@H](NC(=O)[C@H](Cc1ccc(F)cc1)NC(=O)OCc1ccccc1)C(=O)NC(C=O)CC(F)(F)F` (mixture of isomers), the EC50 is above 1260 nM in “cells” and 631 nM in the series on SARS-CoV-2. In series [4], this compound showed a CC50 of 1260 nM. The compound also showed an IC50 in series [1] above 1000 nM.

As to `CC(C)C[C@H](NC(=O)[C@H](Cc1ccc(F)cc1)NC(=O)OCc1ccccc1)C(=O)NC(C=O)Cc1cccnc1` (mixture of isomers), the figures for the EC50 in “cells” and in the series with SARS-CoV-2 were above 10000 nM and 2000 nM, respectively. The midpoint of cytotoxicity in series [4], the CC50, lay at 10000 nM. In series [1], this compound gave an IC50 above 1000 nM.

As to `CC(C)C[C@H](NC(=O)[C@H](Cc1ccc(F)cc1)NC(=O)OCc1ccccc1)C(=O)NC(C=O)Cc1ccc(F)cc1` (mixture of isomers), the EC50 was above 1260 nM in “cells” and 2000 nM in the series with SARS-CoV-2. Besides, in series [4], the CC50 is 1260 nM. The compound also had an IC50 in series [1] of 794 nM. Moreover, in series [3], the T1/2 is below 12 min.

For the compound `CC(C)C[C@H](NC(=O)[C@H](Cc1ccc(F)cc1)NC(=O)OCc1ccccc1)C(=O)NC(C=O)Cc1cncs1` (mixture of isomers), the EC50 in the series “cells” was above 50100 nM. In series [4], this compound gave a CC50 of 2000 nM. Besides, the IC50 in series [1] is above 1000 nM.

Consider `CC(C)C[C@H](NC(=O)[C@H](Cc1ccc(F)cc1)NC(=O)OCc1ccccc1)C(=O)NC(C=O)Cc1ccncc1` (mixture of isomers), for which the figures for the EC50 in “cells” and in the series on SARS-CoV-2 were above 5010 nM and 631 nM, respectively. In series [4], this compound had a CC50 of 5010 nM. Also, the IC50 in series [1] is above 1000 nM.

Regarding `CC(C)C[C@H](NC(=O)[C@H](Cc1ccc(F)cc1)NC(=O)OCc1ccccc1)C(=O)NC(C=O)Cc1ccccc1F` (mixture of isomers), the EC50 in “cells” was 398 nM; in the series with SARS-CoV-2 it was 1580 nM. This compound also had a CC50 in series [4] of 1260 nM. Besides, the Papp in series [5] is 5.27 ×10⁻⁶ cm/s. Besides, the IC50 in series [1] was 3.16 nM. In series [2], the T1/2 turned out to be 414 min.

For the compound `CC(C)C[C@H](NC(=O)[C@H](Cc1ccc(F)cc1)NC(=O)OCc1ccccc1)C(=O)NC(C=O)Cc1cccc(F)c1` (mixture of isomers), the EC50 in the series “cells” is 794 nM; in the series on SARS-CoV-2, 2510 nM. Besides, the CC50 in series [4] is 794 nM. In series [1], this compound had an IC50 of 631 nM. For the same compound, the T1/2 in series [3] is below 12 min.

Compound `CC(C)C[C@H](NC(=O)[C@H](Cc1ccc(F)cc1)NC(=O)OCc1ccccc1)C(=O)NC(C=O)Cc1ccco1` (mixture of isomers) showed an IC50 in series [1] of 126 nM. Further, the EC50 with SARS-CoV-2 is 5010 nM. The T1/2 in series [3] is below 12 min.

Consider `CC(C)C[C@H](NC(=O)[C@H](Cc1ccc(F)cc1)NC(=O)OCc1ccccc1)C(=O)NC(C=O)Cc1c[nH]cn1` (mixture of isomers), for which the EC50 in “cells” is 25100 nM; in the series with SARS-CoV-2, 3980 nM. The CC50 in series [4] was above 50100 nM. The compound also had an IC50 in series [1] of 15.8 nM. Moreover, in series [3], the T1/2 was below 12 min.

`CC(C)C[C@H](NC(=O)[C@H](Cc1ccc(F)cc1)NC(=O)OCc1ccccc1)C(=O)NC(C=O)C[C@@H]1CCNC1=O` (mixture of isomers): the EC50 in “cells” was 3160 nM; with SARS-CoV-2, 1000 nM. Also, the CC50 in series [4] is above 50100 nM. For the same compound, in series [5], the Papp amounted to 1.62 ×10⁻⁶ cm/s. In series [1], this compound had an IC50 of 0.398 nM. Further, the T1/2 in series [2] came to 840 min.

On to `CC(C)C[C@H](NC(=O)[C@H](Cc1ccc(F)cc1)NC(=O)OCc1ccccc1)C(=O)N[C@H](C=O)CC[S+](C)[O-]` (mixture of isomers), for which the EC50 is above 50100 nM in “cells” and 7940 nM in the series with SARS-CoV-2. For the same compound, the CC50 in series [4] was above 50100 nM. The IC50 in series [1] is 7.94 nM. For the same compound, in series [2], the T1/2 was 660 min.

In the case of `CC(C)C[C@H](NC(=O)[C@H](Cc1ccc(F)cc1)NC(=O)OCc1ccccc1)C(=O)NC(C=O)CC1CCCC1` (mixture of isomers), the EC50 in “cells” was 1000 nM. The same compound had a CC50 in series [4] of 10000 nM. The compound also had a half-inhibitory concentration (IC50) in series [1] of 79.4 nM. For the same compound, in series [3], the T1/2 is below 12 min.

With `CC(C)C[C@H](NC(=O)[C@H](Cc1ccc(F)cc1)NC(=O)OCc1ccccc1)C(=O)NC(C=O)CC1CCCCO1` (mixture of isomers), the CC50 in series [4] was above 50100 nM. Besides, the IC50 in series [1] was 39.8 nM. Also, in the series with SARS-CoV-2, the EC50 is 2000 nM. Besides, the T1/2 in series [3] was 18 min.

With `CC(C)C[C@H](NC(=O)[C@H](Cc1ccc(F)cc1)NC(=O)OCc1ccccc1)C(=O)NC(C=O)CC1CCCO1` (mixture of isomers), the figures for the EC50 in “cells” and in the series with SARS-CoV-2 were 316 nM and 2510 nM, respectively. Besides, the midpoint of cytotoxicity in series [4], the CC50, lay at 10000 nM. Also, the Papp in series [5] was 9.56 ×10⁻⁶ cm/s. The compound also had an IC50 in series [1] of 1.26 nM. Further, the T1/2 in series [2] amounted to 660 min.

As for `COCCC(C=O)NC(=O)[C@H](CC(C)C)NC(=O)[C@H](Cc1ccc(F)cc1)NC(=O)OCc1ccccc1` (mixture of isomers), the figures for the EC50 in “cells” and with SARS-CoV-2 were 1260 nM and 1580 nM, respectively. In series [4], this compound had a CC50 of 10000 nM. Also, the IC50 in series [1] was 31.6 nM. Further, the T1/2 in series [3] is below 12 min.

(Values after ChEMBL document CHEMBL5523693, “Exploration of the P1 residue in 3CL protease inhibitors leading to the discovery of a 2-tetrahydrofuran P1 replacement” (Bioorg Med Chem, 2024).)
